Experimental data reported in ChEMBL document CHEMBL5465560, “Selectivity Literature for EUbOPEN Chemogenomic Library” (2024).

Assays:
[1] = biological target: LIM domain kinase 1 (Homo sapiens) (UniProt P53667); assay: Selectivity interaction (KinomeScan (DiscoverX)) EUB0000229b LIMK1; conditions: at 10 µM
[2] = biological target: Ribosomal protein S6 kinase alpha-3 (Homo sapiens, UniProt P51812); assay: Selectivity interaction (Upstate Kinase Profiler service (Millipore)) EUB0000056c RPS6KA3; conditions: at 1 µM
[3] = biological target: Serine/threonine-protein kinase 26 (Homo sapiens, UniProt Q9P289); assay: Selectivity interaction (KinomeScan (DiscoverX)) EUB0000655a STK26; conditions: at 10 µM
[4] = biological target: Fibroblast growth factor receptor 1 (Homo sapiens, UniProt P11362); assay: Selectivity interaction (KinomeScan (DiscoverX)) EUB0001079a FGFR1; conditions: at 1 µM
[5] = biological target: T1, Serine/threonine-protein kinase Nek11 (Homo sapiens) (UniProt Q8NG66); conditions: at 10 µM
T1 sequence (whole entry): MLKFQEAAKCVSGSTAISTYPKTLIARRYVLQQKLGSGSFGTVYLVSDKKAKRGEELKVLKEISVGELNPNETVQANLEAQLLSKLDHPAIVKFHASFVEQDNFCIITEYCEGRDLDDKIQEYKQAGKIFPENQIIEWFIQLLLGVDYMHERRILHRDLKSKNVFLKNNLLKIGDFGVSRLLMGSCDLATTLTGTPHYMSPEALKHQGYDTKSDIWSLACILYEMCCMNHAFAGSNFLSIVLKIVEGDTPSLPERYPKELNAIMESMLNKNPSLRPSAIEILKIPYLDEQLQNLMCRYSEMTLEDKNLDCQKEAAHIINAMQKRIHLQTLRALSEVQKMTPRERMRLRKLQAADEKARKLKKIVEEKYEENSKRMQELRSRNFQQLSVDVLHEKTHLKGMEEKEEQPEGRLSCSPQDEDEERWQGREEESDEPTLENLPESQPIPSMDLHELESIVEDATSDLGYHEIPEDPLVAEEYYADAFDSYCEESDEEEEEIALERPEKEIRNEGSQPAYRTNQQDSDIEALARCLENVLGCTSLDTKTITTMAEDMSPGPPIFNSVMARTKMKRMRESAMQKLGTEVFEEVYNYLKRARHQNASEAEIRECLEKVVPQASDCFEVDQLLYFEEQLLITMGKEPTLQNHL

[6] = biological target: T2, TGF-beta receptor type-1 (Homo sapiens) (UniProt P36897); conditions: at 10 µM
T2 sequence (whole entry): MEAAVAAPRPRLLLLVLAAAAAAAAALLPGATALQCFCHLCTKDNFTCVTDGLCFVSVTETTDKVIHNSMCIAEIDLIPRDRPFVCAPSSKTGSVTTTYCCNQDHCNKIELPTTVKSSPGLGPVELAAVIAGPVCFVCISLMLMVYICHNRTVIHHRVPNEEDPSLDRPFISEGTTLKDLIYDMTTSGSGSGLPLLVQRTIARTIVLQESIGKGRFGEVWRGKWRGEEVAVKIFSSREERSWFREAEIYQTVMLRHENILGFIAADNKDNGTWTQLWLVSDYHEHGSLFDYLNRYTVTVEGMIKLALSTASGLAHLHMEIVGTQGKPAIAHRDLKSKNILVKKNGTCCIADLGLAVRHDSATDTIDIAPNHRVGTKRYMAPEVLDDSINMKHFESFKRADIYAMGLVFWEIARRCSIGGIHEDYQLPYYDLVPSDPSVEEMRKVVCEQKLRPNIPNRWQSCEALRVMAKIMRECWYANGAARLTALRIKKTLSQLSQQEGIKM

[7] = biological target: T3, Serine/threonine-protein kinase tousled-like 1 (Homo sapiens) (UniProt Q9UKI8); assay: Selectivity interaction (ActivX KiNativ screen (kinase selectivity in THP-1 cell lysates)) EUB0000639a TLK1; format: subcellular; conditions: lysate
T3 sequence (whole entry): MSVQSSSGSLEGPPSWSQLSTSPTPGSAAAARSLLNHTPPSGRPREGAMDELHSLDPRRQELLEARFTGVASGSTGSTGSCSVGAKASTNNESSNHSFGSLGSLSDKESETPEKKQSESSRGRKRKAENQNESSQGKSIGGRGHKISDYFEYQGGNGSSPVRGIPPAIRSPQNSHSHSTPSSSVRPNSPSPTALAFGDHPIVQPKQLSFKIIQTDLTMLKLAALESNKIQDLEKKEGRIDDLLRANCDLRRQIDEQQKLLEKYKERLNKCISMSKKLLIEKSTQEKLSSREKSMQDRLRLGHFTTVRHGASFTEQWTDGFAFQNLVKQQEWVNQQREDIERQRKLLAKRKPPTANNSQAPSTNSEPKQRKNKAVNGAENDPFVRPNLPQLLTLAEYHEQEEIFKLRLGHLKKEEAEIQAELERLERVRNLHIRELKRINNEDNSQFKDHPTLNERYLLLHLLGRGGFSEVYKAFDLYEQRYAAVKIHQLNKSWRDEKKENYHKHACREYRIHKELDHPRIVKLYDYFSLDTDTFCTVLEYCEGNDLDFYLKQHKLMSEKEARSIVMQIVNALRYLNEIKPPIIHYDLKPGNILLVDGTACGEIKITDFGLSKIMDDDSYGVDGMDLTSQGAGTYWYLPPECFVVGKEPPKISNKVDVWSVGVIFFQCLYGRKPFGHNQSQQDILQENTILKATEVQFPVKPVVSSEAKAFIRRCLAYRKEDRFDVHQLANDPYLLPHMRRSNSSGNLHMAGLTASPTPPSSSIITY

Focal adhesion kinase 1 = Focal adhesion kinase 1 (Homo sapiens, UniProt Q05397); assay: Selectivity interaction (ActivX KiNativ screen (kinase selectivity in THP-1 cell lysates)) EUB0000639a PTK2; format: subcellular; conditions: lysate, at 1 µM
Focal adhesion kinase 1, sequence (Q05397 2-1052 limits assumed): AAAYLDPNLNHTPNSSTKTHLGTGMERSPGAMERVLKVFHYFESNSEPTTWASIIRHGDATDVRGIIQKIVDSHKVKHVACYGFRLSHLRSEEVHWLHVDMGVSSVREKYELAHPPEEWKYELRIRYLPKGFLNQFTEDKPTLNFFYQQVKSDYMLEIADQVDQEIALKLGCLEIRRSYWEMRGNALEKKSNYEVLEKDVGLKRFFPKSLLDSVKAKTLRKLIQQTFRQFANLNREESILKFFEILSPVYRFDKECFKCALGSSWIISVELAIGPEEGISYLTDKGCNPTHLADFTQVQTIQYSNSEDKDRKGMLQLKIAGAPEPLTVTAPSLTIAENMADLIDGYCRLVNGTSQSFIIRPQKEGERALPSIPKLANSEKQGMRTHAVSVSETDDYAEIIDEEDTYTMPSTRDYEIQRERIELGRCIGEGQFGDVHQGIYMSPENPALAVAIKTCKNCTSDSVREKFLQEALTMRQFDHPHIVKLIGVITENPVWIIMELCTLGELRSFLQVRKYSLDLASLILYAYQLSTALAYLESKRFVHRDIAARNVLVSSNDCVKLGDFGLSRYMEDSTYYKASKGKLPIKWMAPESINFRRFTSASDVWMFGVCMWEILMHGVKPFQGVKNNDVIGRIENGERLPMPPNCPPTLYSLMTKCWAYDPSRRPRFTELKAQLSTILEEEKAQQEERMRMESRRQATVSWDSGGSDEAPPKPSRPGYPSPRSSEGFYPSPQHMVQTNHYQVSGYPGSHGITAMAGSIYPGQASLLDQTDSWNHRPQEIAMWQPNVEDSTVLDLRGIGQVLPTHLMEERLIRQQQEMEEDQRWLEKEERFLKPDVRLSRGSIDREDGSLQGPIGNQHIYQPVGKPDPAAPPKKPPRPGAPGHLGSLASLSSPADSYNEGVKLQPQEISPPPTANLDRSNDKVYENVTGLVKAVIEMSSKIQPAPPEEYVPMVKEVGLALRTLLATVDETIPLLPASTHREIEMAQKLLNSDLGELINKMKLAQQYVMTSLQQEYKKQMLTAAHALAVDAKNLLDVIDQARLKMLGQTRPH

[8] = biological target: Calcium/calmodulin-dependent protein kinase type 1D (Homo sapiens) (UniProt Q8IU85); assay: Selectivity interaction (KinomeScan (DiscoverX)) EUB0000607a CAMK1D; conditions: at 10 µM
[9] = biological target: Interferon-induced, double-stranded RNA-activated protein kinase (Homo sapiens) (UniProt P19525); assay: Selectivity interaction (KinomeScan (DiscoverX)) EUB0000695a EIF2AK2; conditions: at 100 nM
[10] = biological target: Leucine-rich repeat serine/threonine-protein kinase 2 (Homo sapiens, UniProt Q5S007); assay: (§1) Selectivity interaction (KinomeScan (DiscoverX)) EUB0000618a LRRK2; conditions: at 10 µM
Leucine-rich repeat serine/threonine-protein kinase 2, sequence (Q5S007 whole entry): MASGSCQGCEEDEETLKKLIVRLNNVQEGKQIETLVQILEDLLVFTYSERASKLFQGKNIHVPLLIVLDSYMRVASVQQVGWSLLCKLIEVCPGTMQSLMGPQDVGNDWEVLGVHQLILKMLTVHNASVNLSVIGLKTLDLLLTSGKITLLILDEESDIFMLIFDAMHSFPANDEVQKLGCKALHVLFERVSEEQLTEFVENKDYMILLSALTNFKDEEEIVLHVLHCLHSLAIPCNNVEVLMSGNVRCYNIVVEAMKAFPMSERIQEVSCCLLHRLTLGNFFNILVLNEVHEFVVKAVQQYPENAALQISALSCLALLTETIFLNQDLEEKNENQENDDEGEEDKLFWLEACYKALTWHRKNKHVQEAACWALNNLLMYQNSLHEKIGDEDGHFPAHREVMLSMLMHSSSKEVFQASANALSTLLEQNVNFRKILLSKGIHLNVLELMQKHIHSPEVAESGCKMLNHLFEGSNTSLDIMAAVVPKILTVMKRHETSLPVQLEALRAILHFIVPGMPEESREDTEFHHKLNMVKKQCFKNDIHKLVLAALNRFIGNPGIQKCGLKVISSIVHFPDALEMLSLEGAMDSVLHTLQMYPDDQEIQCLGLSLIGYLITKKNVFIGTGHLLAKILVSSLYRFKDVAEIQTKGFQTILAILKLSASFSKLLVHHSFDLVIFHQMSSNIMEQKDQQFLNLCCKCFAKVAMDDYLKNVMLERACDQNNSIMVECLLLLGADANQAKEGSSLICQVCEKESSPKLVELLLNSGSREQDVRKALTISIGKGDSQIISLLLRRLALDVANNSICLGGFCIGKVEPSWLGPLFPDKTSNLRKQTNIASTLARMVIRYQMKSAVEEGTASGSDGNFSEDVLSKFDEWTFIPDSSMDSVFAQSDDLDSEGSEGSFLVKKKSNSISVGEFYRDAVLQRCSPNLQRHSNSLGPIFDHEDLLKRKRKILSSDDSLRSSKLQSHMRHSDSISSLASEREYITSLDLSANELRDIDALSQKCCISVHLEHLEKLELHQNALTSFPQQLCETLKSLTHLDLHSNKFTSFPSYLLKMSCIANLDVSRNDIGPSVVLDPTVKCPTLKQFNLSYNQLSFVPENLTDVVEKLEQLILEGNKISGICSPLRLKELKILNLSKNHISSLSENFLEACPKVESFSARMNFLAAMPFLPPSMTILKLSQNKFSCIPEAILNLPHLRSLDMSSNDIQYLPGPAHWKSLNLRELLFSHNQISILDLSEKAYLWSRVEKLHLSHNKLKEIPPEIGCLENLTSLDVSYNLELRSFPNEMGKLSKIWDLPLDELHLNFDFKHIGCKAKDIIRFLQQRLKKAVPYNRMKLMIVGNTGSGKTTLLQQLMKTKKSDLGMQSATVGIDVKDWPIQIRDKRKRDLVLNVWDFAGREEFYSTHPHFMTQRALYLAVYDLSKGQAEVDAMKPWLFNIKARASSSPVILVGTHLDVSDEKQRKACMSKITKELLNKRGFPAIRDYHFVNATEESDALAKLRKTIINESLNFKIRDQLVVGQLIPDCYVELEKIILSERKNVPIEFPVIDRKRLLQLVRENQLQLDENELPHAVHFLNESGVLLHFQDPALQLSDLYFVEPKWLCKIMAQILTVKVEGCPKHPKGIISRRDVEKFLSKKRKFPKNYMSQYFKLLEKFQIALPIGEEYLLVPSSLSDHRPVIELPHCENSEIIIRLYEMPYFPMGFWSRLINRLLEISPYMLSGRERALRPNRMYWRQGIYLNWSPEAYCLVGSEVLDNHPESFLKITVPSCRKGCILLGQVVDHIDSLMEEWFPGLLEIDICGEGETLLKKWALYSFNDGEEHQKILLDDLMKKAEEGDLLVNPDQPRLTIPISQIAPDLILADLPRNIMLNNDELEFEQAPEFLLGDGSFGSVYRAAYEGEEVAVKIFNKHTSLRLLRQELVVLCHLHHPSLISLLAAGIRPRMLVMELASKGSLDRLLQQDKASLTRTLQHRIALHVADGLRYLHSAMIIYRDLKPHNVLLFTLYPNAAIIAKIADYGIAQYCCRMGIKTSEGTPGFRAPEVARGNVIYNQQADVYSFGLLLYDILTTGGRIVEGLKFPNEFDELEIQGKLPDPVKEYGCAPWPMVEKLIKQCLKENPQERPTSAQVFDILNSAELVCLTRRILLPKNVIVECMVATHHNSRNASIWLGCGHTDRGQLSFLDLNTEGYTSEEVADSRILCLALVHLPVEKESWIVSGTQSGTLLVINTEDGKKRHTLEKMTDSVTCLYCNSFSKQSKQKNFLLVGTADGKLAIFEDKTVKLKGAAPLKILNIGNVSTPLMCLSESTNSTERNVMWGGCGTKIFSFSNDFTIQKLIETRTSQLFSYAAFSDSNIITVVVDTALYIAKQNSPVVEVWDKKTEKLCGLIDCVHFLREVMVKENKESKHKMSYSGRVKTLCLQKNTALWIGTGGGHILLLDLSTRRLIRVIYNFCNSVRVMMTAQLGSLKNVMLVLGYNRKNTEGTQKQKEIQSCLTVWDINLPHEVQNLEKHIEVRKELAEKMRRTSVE

[11] = system: Leucine-rich repeat serine/threonine-protein kinase 2 (Homo sapiens), Q5S007 [G2019S]; assay: as §1; conditions: at 10 µM
Leucine-rich repeat serine/threonine-protein kinase 2 (Homo sapiens), Q5S007 [G2019S], sequence (Q5S007 whole entry G2019S): as the sequence (Q5S007 whole entry) above, with G2019S counted along it

[12] = biological target: Mitogen-activated protein kinase 7 (Homo sapiens) (UniProt Q13164); assay: Selectivity interaction (Ambit KINOMEscan and KiNATiv profiling in Jurkat cells) EUB0000090b MAPK7; format: cell-based; conditions: at 1 µM
Mitogen-activated protein kinase 7 (Homo sapiens), sequence (Q13164 2-816 limits assumed): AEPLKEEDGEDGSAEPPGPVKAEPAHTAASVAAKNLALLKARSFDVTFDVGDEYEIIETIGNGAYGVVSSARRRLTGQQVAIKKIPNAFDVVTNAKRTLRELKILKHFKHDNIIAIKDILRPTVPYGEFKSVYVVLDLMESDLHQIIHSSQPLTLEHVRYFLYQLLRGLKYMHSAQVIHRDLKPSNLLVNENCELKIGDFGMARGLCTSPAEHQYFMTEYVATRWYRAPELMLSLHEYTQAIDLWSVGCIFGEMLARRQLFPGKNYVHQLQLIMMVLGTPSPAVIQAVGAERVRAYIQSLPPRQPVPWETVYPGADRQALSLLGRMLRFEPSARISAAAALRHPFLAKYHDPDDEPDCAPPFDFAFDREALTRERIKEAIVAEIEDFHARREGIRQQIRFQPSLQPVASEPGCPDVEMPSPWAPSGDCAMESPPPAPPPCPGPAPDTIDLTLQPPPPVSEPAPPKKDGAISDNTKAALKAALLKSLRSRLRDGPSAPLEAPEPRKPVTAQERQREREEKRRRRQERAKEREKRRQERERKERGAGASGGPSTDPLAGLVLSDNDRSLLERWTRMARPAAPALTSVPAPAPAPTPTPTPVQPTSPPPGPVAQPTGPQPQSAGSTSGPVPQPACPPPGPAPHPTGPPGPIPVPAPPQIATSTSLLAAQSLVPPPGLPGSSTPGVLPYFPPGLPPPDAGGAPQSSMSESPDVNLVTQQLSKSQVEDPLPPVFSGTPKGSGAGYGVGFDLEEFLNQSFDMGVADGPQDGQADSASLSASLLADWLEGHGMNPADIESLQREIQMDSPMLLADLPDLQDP

LIM domain kinase 1 (Homo sapiens), sequence (P53667 whole entry, looked up, the tested form may be a part): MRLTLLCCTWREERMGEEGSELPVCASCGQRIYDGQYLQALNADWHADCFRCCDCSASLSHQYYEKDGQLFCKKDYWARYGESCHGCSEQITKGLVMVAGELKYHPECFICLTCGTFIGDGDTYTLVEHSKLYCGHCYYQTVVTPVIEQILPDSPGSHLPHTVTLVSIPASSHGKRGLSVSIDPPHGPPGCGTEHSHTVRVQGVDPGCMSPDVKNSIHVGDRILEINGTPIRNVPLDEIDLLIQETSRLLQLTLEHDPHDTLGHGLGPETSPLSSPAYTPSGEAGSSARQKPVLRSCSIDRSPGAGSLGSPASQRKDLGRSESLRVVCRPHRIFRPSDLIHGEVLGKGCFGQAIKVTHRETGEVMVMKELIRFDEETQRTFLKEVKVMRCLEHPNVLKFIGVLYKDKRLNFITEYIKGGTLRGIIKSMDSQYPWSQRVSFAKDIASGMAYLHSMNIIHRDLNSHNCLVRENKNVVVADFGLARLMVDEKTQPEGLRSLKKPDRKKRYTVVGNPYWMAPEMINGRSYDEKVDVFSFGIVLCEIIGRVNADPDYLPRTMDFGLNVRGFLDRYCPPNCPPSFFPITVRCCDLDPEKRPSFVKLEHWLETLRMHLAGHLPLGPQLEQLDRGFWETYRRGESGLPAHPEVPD

Compound: COc1cc(N(C)c2ccnc3ccc(C(F)(F)F)cc23)cc(OC)c1OC
- % binding [1]: 89%

Compound: Cc1ccc(-c2ccc3c(ccc4sc5c(c43)NC[C@@H](C)NC5=O)n2)cn1
- % of inhibition [2]: 27%

Compound: CN(C)CCOc1ccc(-c2nc(-c3ccncc3)c(-c3ccc4c(c3)CC/C4=N\O)[nH]2)cc1
- % of control [3]: 91%

Compound: Nc1cnc(N2CCc3cc(S(=O)(=O)Nc4c(F)cc(Cl)cc4F)cc(N4CCCC4=O)c32)nc1 [TP-020n]
- % of control [4]: 88%

Compound: Cc1cc([C@@H](C)Nc2ccccc2C(=O)O)c2nc(N3CCOCC3)cc(=O)n2c1 [AZD-6482]
- % of control [5]: 100%
- % of control [6]: 100%

Compound: CC[C@@H]1[C@H](F)C(=O)N[C@@H]1COc1nccc2cc(C(N)=O)c(OC)cc12 [ZIMLOVISERTIB]
- % of inhibition ([7]; at 0.01 µM): 10.2%
- % of inhibition ([7]; at 0.04 µM): 21.8%
- % of inhibition ([7]; at 0.2 µM): 4.8%
- % of inhibition ([7]; at 1 µM): 54%
- % of inhibition ([7]; at 5 µM): 62.2%
- % of inhibition (Focal adhesion kinase 1): -38.6%

Compound: CNC(=O)Nc1ccc(-c2nc(N3CC4CCC(C3)O4)c3cnn(C4CCC5(CC4)OCCO5)c3n2)cc1
- % of control [8]: 95%

Compound: Cc1cc(F)c(C(=O)Nc2cccc(-c3nncn3C(C)C)n2)cc1-n1cnc(C2CC2)c1
- % of control [9]: 100%

Compound: O[C@H]1CC[C@H](Nc2ncc3nc(Nc4c(F)cc(F)cc4F)n([C@H]4CCOC4)c3n2)CC1
- % of control [10]: 83%
- % of control [11]: 95%

Compound: CN(C)C/C=C/C(=O)Nc1ccc(C(=O)N2CCCC(Nc3ncc(Cl)c(-c4c[nH]c5ccccc45)n3)C2)cc1 (configuration not stated)
- % of control [12]: 88%
